Experimental data reported in patent publication US20160361258A1 (priority 2015, published 2016).

Assays:
[1] = prior art U.S. Pat. No. 5,880,117; humans; cited from earlier work
[2] = in vivo; details: delivered sublingually or transmucosally
Protocol: 7-methoxyflavone is an aromatase inhibitor. Aromatase inhibitors work by inhibiting the action of the enzyme aromatase, which converts androgens into estrogens by a process called aromatization. 7-methoxyflavone is a compound having poor bioavailability of about 5% when ingested. According to an embodiment of the present invention, from about 5 mg to 50 mg, and preferably from about 20 mg to 30 mg of 7-methoxyflavone may be included in the formulations and dosage forms of the present invention, when delivered sublingually or transmucosally. […] According to an embodiment, the 7-methoxyflavone may be from a plant extract. 7-methoxyflavone has been found in Meliaceae and Rutaceae plants. According to an embodiment, the 7-methoxyflavone may therefore be from an extract containing at least 90% 7-methoxyflavone, standardized. Preferably, extract contains at least […] 7-methoxyflavone, standardized.
According to an embodiment of the present invention, from about 5 mg to 50 mg, and preferably from about 20 mg to 30 mg of 7,8-benzoflavone may be included in the formulations and dosage forms of the present invention, when delivered sublingually or transmucosally. According to an embodiment, the half-life of 7,8-benzoflavone is about 1-2 h when delivered sublingually or transmucosally.

[3] = in vivo; cited from earlier work

Structure (SMILES) | time of concentration peak after administration [1] [min] | half-life [2] [h] | bioavailability [3]
C[C@]12CC[C@H]3[C@@H](CCC4=C[C@@H](O)CC[C@@]43C)[C@@H]1CC[C@@H]2O [4-androstene-3β, 17β-diol] | ≤ 90 | – | –
COc1ccc2c(=O)cc(-c3ccccc3)oc2c1 [7-methoxyflavone] | – | 8 to 12 | about 5%
O=c1cc(-c2ccccc2)oc2c1ccc1ccccc12 [7,8-benzoflavone, 2-phenyl-benzo(h)chromen-4-one] | – | 1 to 2 | –
